The compound `*/C=C(/*)C(CCCCCCC)[Si](C)(C)C` (repeat unit) came in with a glass transition temperature of 150.00 °C.

`*/C=C(/*)CCCOC(=O)c1cc(-c2ccc(OC)cc2)ccc1-c1ccc(OC)cc1` (repeat unit) registered a glass transition temperature of 72.40 °C.

Regarding `*/C=C/c1ccc(/N=N/c2ccc(N(C)CCOC(=O)Nc3ccc(C)c(NC(=O)OCCN(C)c4ccc(/N=N/c5ccc(/C=C/C6=CC(=C(C#N)C#N)C=C(*)O6)cc5)cc4)c3)cc2)cc1` (repeat unit), the glass transition temperature was 196.00 °C.

For the compound `*C(=O)NC1CCC(CC2CCC(NC(=O)c3ccc(N4C(=O)c5ccc(*)cc5C4=O)cc3)CC2)CC1` (repeat unit), the glass transition temperature was found to be 275.00 °C.

For `*C(=O)Nc1ccc(C)cc1N1C(=O)CC(N2C(=O)c3ccc(*)cc3C2=O)C1=O` (repeat unit), the glass transition temperature was 237.00 °C.

`*C(=O)Nc1ccc(NC(=O)c2ccc3c(c2)C(=O)N(c2ccc(Oc4ccc(N5C(=O)c6ccc(*)cc6C5=O)cc4)cc2)C3=O)c(OCCCCCCS(=O)(=O)c2ccc(/C=C/c3ccc(N(C)C)cc3)cc2)c1` (repeat unit): the glass transition temperature came to 192.00 °C.

In turn, `*C/C=C/COC(=O)NCCCCCCNC(=O)O*` (repeat unit) registered a glass transition temperature of -39.00 °C.

Regarding `*CC(F)(F)C(F)(F)C(F)(F)COC(=O)NCC(F)(F)C(F)(F)C(F)(F)C(F)(F)CNC(=O)O*` (repeat unit), the glass transition temperature is 25.00 °C.

As for `*CC(F)(F)C(F)(F)COC(=O)NCCCCCCNC(=O)O*` (repeat unit), the glass transition temperature turned out to be 9.00 °C.

For `*CCCCCCCCCCCCCCCCOC(=O)NCCCCCCNC(=O)O*` (repeat unit), the glass transition temperature was 39.00 °C.

`*CCCCCCCCCCCCCCNC(=O)NCCCCCCCCCCNC(=O)N*` (repeat unit) gave a glass transition temperature of 40.00 °C.

Regarding `*CCCCCCCCCCCCCCNC(=O)NCc1ccc(CNC(=O)N*)cc1` (repeat unit), the glass transition temperature turned out to be 54.00 °C.

Compound `*CCCCCCCCCCCCNC(=O)c1ccc(C(=O)N*)cc1` (repeat unit) yielded a glass transition temperature of 130.00 °C.

With `*CCCCCCCCCCNC(=O)NCc1ccc(CNC(=O)N*)cc1` (repeat unit), the glass transition temperature amounted to 55.00 °C.

As for `*CCCCCCCCCNC(=S)N*` (repeat unit), the glass transition temperature amounted to 48.00 °C.

Regarding `*CCCCCCCCCOC(=O)NCCCCCCNC(=O)O*` (repeat unit), the glass transition temperature came to 58.00 °C.

For `*CCCCCCCCNC(=O)NCc1ccc(CNC(=O)N*)cc1` (repeat unit), the glass transition temperature amounted to 68.00 °C.

For the compound `*CCCCCCCCNC(=O)c1ccc(C(=O)N*)c(Sc2ccccc2)c1` (repeat unit), the glass transition temperature was 110.00 °C.

`*CCCCCCCCNC(=O)c1ccc(C(=O)N*)cc1` (repeat unit): the glass transition temperature was 123.00 °C.

In turn, `*CCCCCCCCNC(=O)c1cccc(C(=O)N*)c1` (repeat unit) displayed a glass transition temperature of 110.00 °C.

`*CCCCCCCCOC(=O)Nc1ccc(C)c(NC(=O)O*)c1` (repeat unit) gave a glass transition temperature of 64.00 °C.

Consider `*CCCCCCCNC(=O)N*` (repeat unit), for which the glass transition temperature was 62.00 °C.

`*CCCCCCOC(=O)NCC(F)(F)C(F)(F)C(F)(F)C(F)(F)CNC(=O)O*` (repeat unit) returned a glass transition temperature of 5.00 °C.

With `*CCCCCCOC(=O)NCCCCCCNC(=O)O*` (repeat unit), the glass transition temperature was determined as 168.00 °C.

Compound `*CCCCCCOC(=O)Nc1ccc(NC(=O)OCCCCCCOc2ccc(-c3ccc(O*)cc3)cc2)c(C)c1` (repeat unit) yielded a glass transition temperature of 89.00 °C.

With `*CCCCCOC(=O)NCCCCCCNC(=O)O*` (repeat unit), the glass transition temperature was found to be 33.00 °C.

On to `*CCCCCOC(=O)c1ccccc1C(=O)[O][Pb][O]C(=O)c1ccccc1C(=O)OCCCCCOC(=O)NCCCCCCNC(=O)O*` (repeat unit), for which the glass transition temperature is -19.20 °C.

In the case of `*CCCCCOC(=O)c1ccccc1C(=O)[O][Pb][O]C(=O)c1ccccc1C(=O)OCCCCCOC(=O)Nc1ccc(C)c(NC(=O)O*)c1` (repeat unit), the glass transition temperature was -11.30 °C.

In turn, `*CCCCOC(=O)NCC(F)(F)C(F)(F)C(F)(F)C(F)(F)CNC(=O)O*` (repeat unit) had a glass transition temperature of 33.00 °C.

For `*CCCCOC(=O)NCCCCCCNC(=O)O*` (repeat unit), the glass transition temperature was determined as 33.50 °C.

Regarding `*CCCCOC(=O)Nc1ccc(C)c(NC(=O)O*)c1` (repeat unit), the glass transition temperature is 42.00 °C.

For `*CCN(CCCCCCOc1ccc(/C=C/c2ccc([N+](=O)[O-])cc2)cc1)CCOC(=O)Nc1ccc(C)c(NC(=O)O*)c1` (repeat unit), the glass transition temperature is 58.50 °C.

Compound `*CCN(CCOC(=O)NCC1(C)CC(NC(=O)O*)CC(C)(C)C1)c1ccc(/N=N/c2ccc([N+](=O)[O-])cc2)cc1` (repeat unit) had a glass transition temperature of 137.00 °C.

Consider `*CCN(CCOC(=O)Nc1cccc(NC(=O)O*)c1C)c1ccc(/N=N/c2ccc([N+](=O)[O-])cc2)cc1` (repeat unit), for which the glass transition temperature came out at 147.00 °C.

`*CCOC(=O)NCCCCCCCCCNC(=O)O*` (repeat unit) displayed a glass transition temperature of 44.00 °C.

As to `*CCOC(=O)Nc1cc(NC(=O)O*)ccc1C` (repeat unit), the glass transition temperature worked out at 52.00 °C.

For `*NC(=O)NCCCCCCNC(=O)Nc1cccc(*)n1` (repeat unit), the glass transition temperature was found to be 170.00 °C.

The compound `*NC(C)(CC)C(*)=O` (repeat unit) returned a glass transition temperature of 74.2 °C.

Take `*NC(CCC(=O)Nc1ccc(N(c2ccccc2)c2ccccc2)cc1)C(*)=O` (repeat unit): the glass transition temperature was determined as 132.00 °C.

`*NC(CCC(=O)OCCC)C(*)=O` (repeat unit) had a glass transition temperature of -10.00 °C.

Turning to `*NC(CCC(=O)OCCCC)C(*)=O` (repeat unit), the glass transition temperature was -15.00 °C.

`*NC(CCC(=O)OCCCCCCCCCC)C(*)=O` (repeat unit) displayed a glass transition temperature of -62.00 °C.

`*Nc1cc(NC(=O)c2cc(OCCN(C)c3ccc(S(=O)(=O)C(F)(F)C(F)(F)C(F)(F)C(F)(F)C(F)(F)C(F)(F)C(F)(F)C(F)(F)F)cc3)cc(C(*)=O)c2)cc(C(=O)OCCN(C)c2ccc(C#N)cc2)c1` (repeat unit): the glass transition temperature came to 157.00 °C.

`*Nc1cc(NC(=O)c2cc(OCCN(C)c3ccc([N+](=O)[O-])cc3)cc(C(*)=O)c2)cc(C(=O)OC)c1` (repeat unit) had a glass transition temperature of 177.00 °C.

As for `*Nc1cc(NC(=O)c2cc(OCCN(C)c3ccc([N+](=O)[O-])cc3)cc(C(*)=O)c2)cc(C(=O)OC2CC(C)CCC2C(C)C)c1` (repeat unit), the glass transition temperature came out at 193.00 °C.

Take `*Nc1cc(NC(=O)c2ccc(C(*)=O)cc2)cc(C(=O)OCCOc2ccc(/C=C/C(=O)c3ccccc3)cc2)c1` (repeat unit): the glass transition temperature amounted to 233.00 °C.

Consider `*Nc1cc(NC(=O)c2cccc(C(*)=O)c2)cc(C(=O)Oc2ccc(Oc3ccc(C#N)c(C#N)c3)cc2)c1` (repeat unit), for which the glass transition temperature came out at 305.00 °C.

Take `*Nc1ccc(Cc2ccc(NC(=O)NCCCCCCCCCCCCNC(*)=O)cc2)cc1` (repeat unit): the glass transition temperature stood at 51.00 °C.

The compound `*Nc1ccc(Cc2ccc(NC(=O)NCCCCCCNC(*)=O)cc2)cc1` (repeat unit) registered a glass transition temperature of 78.00 °C.

`*Nc1ccc(NC(=O)c2ccc(NC(=O)CCCCCCC(=O)Nc3ccc(C(*)=O)cc3)cc2)cc1C(=O)OCCCCCCCCCCCCCCCCCC` (repeat unit) gave a glass transition temperature of 305.00 °C.

As to `*Nc1ccc(NC(=O)c2ccc(NC(=O)CCCCCCCCCCCCC(=O)Nc3ccc(C(*)=O)cc3)cc2)cc1C(=O)OCCCCCCCCCCCCCC` (repeat unit), the glass transition temperature came to 204.50 °C.

Consider `*Nc1ccc(NC(=O)c2ccc(NC(=O)CCCCCCCCCCCCC(=O)Nc3ccc(C(*)=O)cc3)cc2)cc1C(=O)OCCCCCCCCCCCCCCCCCC` (repeat unit), for which the glass transition temperature was 191.00 °C.

For `*Nc1cccc(NC(=O)c2cccc(C(=O)Nc3ccc(C(=O)NC(*)=S)cc3)c2)c1` (repeat unit), the glass transition temperature turned out to be 270.00 °C.

For `*[O][Ca][O]C(=O)c1ccccc1C(=O)OCCCCCOC(=O)Nc1cc(NC(=O)OCCCCCOC(=O)c2ccccc2C(*)=O)ccc1C` (repeat unit), the glass transition temperature was determined as 5.10 °C.

Compound `*[O][Zn][O]C(=O)c1ccccc1C(=O)OCCCCCOC(=O)NCCCCCCNC(=O)OCCCCCOC(=O)c1ccccc1C(*)=O` (repeat unit) yielded a glass transition temperature of -4.30 °C.

As to `*[O][Zn][O]C(=O)c1ccccc1C(=O)OCCCCCOC(=O)Nc1cc(NC(=O)OCCCCCOC(=O)c2ccccc2C(*)=O)ccc1C` (repeat unit), the glass transition temperature came out at 4.20 °C.

`*Oc1cc(C(C)(C)C)c(Oc2ccc(C(=O)Nc3c(C)cc(Cc4cc(C)c(NC(=O)c5ccc(*)cc5)c(C(C)C)c4)cc3C(C)C)cc2)cc1C(C)(C)C` (repeat unit) returned a glass transition temperature of 260.00 °C.

As to `*Oc1ccc(/N=C/CCC/C=N/c2ccc(OC(=O)Nc3cc(NC(*)=O)ccc3C)cc2)cc1` (repeat unit), the glass transition temperature stood at 69.00 °C.

The compound `*Oc1ccc(C(*)=O)cc1CCCCC` (repeat unit) had a glass transition temperature of 50.00 °C.

As to `*Oc1ccc(OC(=O)c2cc(OCCCCCCCCCCCC)c(C(*)=O)cc2OCCCCCCCCCCCC)cc1C` (repeat unit), the glass transition temperature was determined as 112.00 °C.

For the compound `*Oc1ccc(OC(=O)c2ccc(C(*)=O)cc2Oc2ccc(C(C)(C)c3ccccc3)cc2)cc1` (repeat unit), the glass transition temperature came out at 93.00 °C.

In turn, `*Oc1ccc(S(=O)(=O)c2ccc(OC(=O)c3cc(CCCCC)cc(C(*)=O)c3)cc2)cc1` (repeat unit) came in with a glass transition temperature of 170.00 °C.

`*Oc1cccc(OC(=O)c2cc(OCCCCC)cc(C(*)=O)c2)c1` (repeat unit) yielded a glass transition temperature of 96.00 °C.

Compound `*Oc1ccccc1C(=O)OC(=O)c1ccccc1OC(=O)C(CC)C(CC)C(*)=O` (repeat unit) showed a glass transition temperature of 23.00 °C.

With `*c1ccc(C(=O)NCCCCCCCCNC(=O)c2ccc(-c3nc4ccccc4nc3*)cc2)cc1` (repeat unit), the glass transition temperature is 185.00 °C.
